Experimental data from patent publication US9554576B2, “Tetrazolinone compounds and their use as pesticides” (SUMITOMO CHEMICAL COMPANY, LIMITED, priority 2012, dated 2017).

Tested on: wheat rust fungi (Puccinia recondita)
Assay: Comparative Test Example: wheat rust foliar spray test
Format: in vivo
Conditions: wheat (cv; Shirogane), 500 ppm foliar spray, inoculated after 5 days
Experimental: The spores of wheat rust fungi (Puccinia recondita) were sprinkling-inoculated. After inoculation, the plants were placed under a dark and humid condition at 23° C. for 1 day and were then cultivated at 20° C. under lighting for 8 days and a lesion area was observed.

Cc1cc(C)n(-c2ccc(OCc3ccccc3-n3nnn(C)c3=O)c(Cl)c2)n1 [control compound, 1-{2-[2-chloro-4-(3,5-dimethyl-pyrazol-1-yl)-phenoxymethyl]-phenyl}-4-methyl-1,4-dihydrotetrazole-5-one]
lesion area compared to the lesion area in untreated plants: ≥ 70%
